Values after ≈ are worked out from the molar mass of the structure shown. Like-named read-outs stand apart in the source and are kept apart here.
Legend:
Str. pneumoniae A-9585 = assay: MIC, tube dilution, Streptococcus pneumoniae A9585; format: cell-based; conditions: Streptococcus pneumoniae, A9585, Str. pneumoniae A9585; overnight 37° C., Nutrient Broth; read-out: Minimum Inhibitory Concentration (M.I.C.)
Source text: (§1) Representative compounds of the present invention were subjected to in vitro antibiotic screening against a variety of microorganisms.

Str. pyogenes A-9604 = assay: MIC, tube dilution, Streptococcus pyogenes A9604; format: cell-based; conditions: Streptococcus pyogenes, A9604, Str. pyogenes A9604; overnight 37° C., Nutrient Broth; read-out: Minimum Inhibitory Concentration (M.I.C.)
Source text: as §1

Staph. aureus A-9537 = assay: MIC, tube dilution, Staphylococcus aureus A9537; format: cell-based; conditions: Staphylococcus aureus, A9537, Staph. aureus A9537; overnight 37° C., Nutrient Broth; read-out: Minimum Inhibitory Concentration (M.I.C.)
Source text: as §1

[1] = test system: Staph. aureus A-9537 and 50% serum; assay: MIC, tube dilution, Staph. aureus A9537 + 50% serum; format: cell-based, Staphylococcus aureus; conditions: Staphylococcus aureus, overnight 37° C., read-out: Minimum Inhibitory Concentration (M.I.C.)
Source text: as §1

[2] = test system: Staph. aureus (Pen-Res) A-9606; assay: MIC, tube dilution, Staphylococcus aureus A9606 (Pen-Res); format: cell-based; conditions: Staphylococcus aureus, overnight 37° C.
Source text: as §1

[3] = test system: Staph. aureus (Meth-Res) A-15097; assay: MIC, tube dilution, Staphylococcus aureus A15097 (Meth-Res); format: cell-based; conditions: Staphylococcus aureus, overnight 37° C.
Source text: as §1

Str. faecalis A-20688 = assay: MIC, tube dilution, Streptococcus faecalis A20688; format: cell-based; conditions: Enterococcus faecalis, A20688, Str. faecalis A20688; overnight 37° C.; read-out: Minimum Inhibitory Concentration (M.I.C.)
Source text: as §1

E. coli A-15119 = assay: MIC, tube dilution, Escherichia coli A15119; format: cell-based; conditions: Escherichia coli, A15119, E. coli A15119; overnight 37° C.; read-out: Minimum Inhibitory Concentration (M.I.C.)
Source text: as §1

E. coli A-20341-1 = assay: MIC, tube dilution, Escherichia coli A20341-1; format: cell-based
Source text: as §1

K. pneumoniae A-15130 = assay: MIC, tube dilution, Klebsiella pneumoniae A15130; format: cell-based; conditions: Klebsiella pneumoniae, A15130, K. pneumoniae A15130; overnight 37° C.; read-out: Minimum Inhibitory Concentration (M.I.C.)
Source text: as §1

[4] = test system: Klebsiella species A20468; assay: MIC, tube dilution, Klebsiella species A20468; format: cell-based; conditions: Klebsiella species (K. pneumoniae) A20468; overnight 37° C.; read-out: Minimum Inhibitory Concentration (M.I.C.)
Source text: as §1

Pr. mirabilis A-9900 = assay: MIC, tube dilution, Proteus mirabilis A9900; format: cell-based; conditions: Proteus mirabilis, A9900, Proteus mirabilis A9900; overnight 37° C.; read-out: Minimum Inhibitory Concentration (M.I.C.)
Source text: as §1

Pr. vulgaris A-9716 = assay: MIC, tube dilution, Proteus vulgaris / Proteus mirabilis A9716; format: cell-based, Proteus vulgaris (name changed to Proteus mirabilis); conditions: Proteus vulgaris, overnight 37° C.
Source text: as §1

Pr. morganii A-15153 = assay: MIC, tube dilution, Proteus morganii A15153; format: cell-based; conditions: Morganella morganii, A15153, Proteus morganii A15153; overnight 37° C.; read-out: Minimum Inhibitory Concentration (M.I.C.)
Source text: as §1

Ser. marcescens A-20019 = assay: MIC, tube dilution, Serratia marcescens A20019; format: cell-based; conditions: Serratia marcescens, A20019, Serratia marcescens A20019; overnight 37° C.; read-out: Minimum Inhibitory Concentration (M.I.C.)
Source text: as §1

Ent. cloacae A-9659 = assay: MIC, tube dilution, Enterobacter cloacae A9659; format: cell-based; conditions: Enterobacter cloacae, A9659, Enterobacter cloacae A9659; overnight 37° C.; read-out: Minimum Inhibitory Concentration (M.I.C.)
Source text: as §1

Ent. cloacae A-9656 = assay: MIC, tube dilution, Enterobacter cloacae A9656; format: cell-based; conditions: overnight 37° C., read-out: Minimum Inhibitory Concentration (M.I.C.)
Source text: as §1

Ps. aeruginosa A-9843A = assay: MIC, tube dilution, Pseudomonas aeruginosa A9843A; format: cell-based; conditions: Pseudomonas aeruginosa, A9843A, read-out: Minimum Inhibitory Concentration (M.I.C.), Pseudomonas aeruginosa A9843A; overnight 37° C.
Source text: as §1

Ps. aeruginosa A-21213 = assay: MIC, tube dilution, Pseudomonas aeruginosa A21213; format: cell-based; conditions: overnight 37° C., read-out: Minimum Inhibitory Concentration (M.I.C.)
Source text: as §1

Proteus rettgeri A21203 = assay: MIC, tube dilution, Proteus rettgeri A21203; format: cell-based; conditions: Providencia rettgeri, overnight 37° C., read-out: Minimum Inhibitory Concentration (M.I.C.)
Source text: as §1

Proteus vulgaris A21559 = assay: MIC, tube dilution, Proteus vulgaris A21559; format: cell-based; conditions: Proteus vulgaris
Source text: as §1

[5] = read-out: Minimum Inhibitory Concentration (M.I.C.), Staph. aureus A9606 (Pen-Res)
[6] = read-out: Minimum Inhibitory Concentration (M.I.C.), Staph. aureus A15097 (Meth-Res)
[7] = Escherichia coli, A203411; E. coli A20341-1; overnight 37° C.; read-out: Minimum Inhibitory Concentration (M.I.C.)
[8] = Staph. aureus A9606 (Pen-Res), read-out: Minimum Inhibitory Concentration (M.I.C.)
[9] = Enterobacter cloacae, A9656, Enterobacter cloacae A9656
[10] = A21203, Proteus rettgeri A21203
[11] = Staph. aureus A15097 (Meth-Res), read-out: Minimum Inhibitory Concentration (M.I.C.)
[12] = Escherichia coli, A203411, E. coli A20341-1; overnight 37° C.; read-out: Minimum Inhibitory Concentration (M.I.C.)
[13] = Pseudomonas aeruginosa, A21213, Pseudomonas aeruginosa A21213
[14] = A21559, Proteus vulgaris A21559, overnight 37° C., read-out: Minimum Inhibitory Concentration (M.I.C.)

Row | Compound | MIC (Str. pneumoniae A-9585) | MIC (Str. pyogenes A-9604) | MIC (Staph. aureus A-9537) | MIC [1] | MIC [3, 6] | MIC (Str. faecalis A-20688) | MIC (E. coli A-15119) | MIC (E. coli A-20341-1; [7]) | MIC (K. pneumoniae A-15130) | MIC [4] | MIC (Pr. mirabilis A-9900) | MIC (Pr. morganii A-15153) | MIC (Ser. marcescens A-20019) | MIC (Ent. cloacae A-9659) | MIC (Ps. aeruginosa A-9843A) | MIC (Ps. aeruginosa A-21213; Pseudomonas aeruginosa A21213) | MIC [2, 8] | MIC (Ent. cloacae A-9656; [9]) | MIC (Proteus rettgeri A21203; [10]) | MIC [3, 11] | other results
1 | O=C(O)C1=C(C(F)(F)F)SC2CC(=O)N12 (centres unmarked) [Example 17, Sodium 2-Trifluoromethylpenem-3-carboxylate] | > 8 µg/mL | > 8 µg/mL | > 8 µg/mL | > 63 µg/mL | > 125 µg/mL | > 125 µg/mL | 125 µg/mL | > 125 µg/mL | > 125 µg/mL | > 125 µg/mL | > 125 µg/mL | > 125 µg/mL | > 125 µg/mL | > 125 µg/mL | 125 µg/mL | 125 µg/mL | – | – | – | – | MIC [2, 5]: > 125 µg/mL; MIC (Pr. vulgaris A-9716; A9716, read-out: Minimum Inhibitory Concentration (M.I.C.), Proteus vulgaris / Proteus mirabilis A9716): > 125 µg/mL; MIC (Ent. cloacae A-9656; Enterobacter cloacae A9656): > 125 µg/mL; MIC (Proteus rettgeri A21203; Proteus rettgeri A21203): 125 µg/mL
2 | CC1(CC2=C(C(=O)O)N3C(=O)CC3S2)OCCO1 (centres unmarked) [Preparation 22, 2-(Acetonyl-ethylene-ketal)penem-3-carboxylic Acid] | 0.13 µg/mL (≈ 0.479 µM) | 0.25 µg/mL (≈ 0.922 µM) | 0.5 µg/mL (≈ 1.84 µM) | 32 µg/mL | > 125 µg/mL | 125 µg/mL (≈ 461 µM) | – | 125 µg/mL (≈ 461 µM) | 32 µg/mL (≈ 118 µM) | 125 µg/mL (≈ 461 µM) | 16 µg/mL (≈ 59 µM) | 8 µg/mL (≈ 29.5 µM) | 63 µg/mL (≈ 232 µM) | 63 µg/mL (≈ 232 µM) | 125 µg/mL (≈ 461 µM) | 125 µg/mL (≈ 461 µM) | 32 µg/mL (≈ 118 µM) | 63 µg/mL (≈ 232 µM) | 16 µg/mL (≈ 59 µM) | – | MIC (Pr. vulgaris A-9716; A9716, Proteus vulgaris / Proteus mirabilis A9716, read-out: Minimum Inhibitory Concentration (M.I.C.)): 4 µg/mL (≈ 14.7 µM)
3 | CC(N)=NCC1=C(C(=O)O)N2C(=O)CC2S1 (centres unmarked) [16 (5)] | 1 µg/mL (≈ 4.14 µM) | 2 µg/mL (≈ 8.29 µM) | 4 µg/mL (≈ 16.6 µM) | 32 µg/mL | – | > 63 µg/mL | 16 µg/mL (≈ 66.3 µM) | – | 63 µg/mL (≈ 261 µM) | > 63 µg/mL | 8 µg/mL (≈ 33.2 µM) | 16 µg/mL (≈ 66.3 µM) | 32 µg/mL (≈ 133 µM) | 63 µg/mL (≈ 261 µM) | 16 µg/mL (≈ 66.3 µM) | – | 32 µg/mL (≈ 133 µM) | 63 µg/mL (≈ 261 µM) | 32 µg/mL (≈ 133 µM) | 63 µg/mL (≈ 261 µM) | MIC (E. coli A-20341-1; [12]): > 63 µg/mL; MIC (Ps. aeruginosa A-21213; [13]): 32 µg/mL (≈ 133 µM); MIC (Proteus vulgaris A21559; [14]): 63 µg/mL (≈ 261 µM)
4 | NCc1ccc(CC2=C(C(=O)O)N3C(=O)CC3S2)cc1 (centres unmarked) [Example 85, 2-(p-Aminomethylbenzyl)penem-3-carboxylic Acid] | 0.06 µg/mL (≈ 0.207 µM) | 0.06 µg/mL (≈ 0.207 µM) | 0.06 µg/mL (≈ 0.207 µM) | 1 µg/mL | – | 16 µg/mL (≈ 55.1 µM) | 4 µg/mL (≈ 13.8 µM) | – | 32 µg/mL (≈ 110 µM) | > 63 µg/mL | 4 µg/mL (≈ 13.8 µM) | 4 µg/mL (≈ 13.8 µM) | 4 µg/mL (≈ 13.8 µM) | 8 µg/mL (≈ 27.6 µM) | 8 µg/mL (≈ 27.6 µM) | – | 16 µg/mL (≈ 55.1 µM) | 8 µg/mL (≈ 27.6 µM) | 4 µg/mL (≈ 13.8 µM) | > 63 µg/mL | MIC (E. coli A-20341-1; [12]): 63 µg/mL (≈ 217 µM); MIC (Ps. aeruginosa A-21213; [13]): 63 µg/mL (≈ 217 µM); MIC (Proteus vulgaris A21559; [14]): > 63 µg/mL
5 | C[C@@H](O)[C@H]1C(=O)N2C(C(=O)O)=C(COCCN)S[C@H]12 (relative stereo) [66,96] | 0.03 µg/mL (≈ 0.104 µM) | 0.03 µg/mL (≈ 0.104 µM) | 0.06 µg/mL (≈ 0.208 µM) | 0.5 µg/mL | – | 4 µg/mL (≈ 13.9 µM) | 0.5 µg/mL (≈ 1.73 µM) | – | 2 µg/mL (≈ 6.94 µM) | 2 µg/mL (≈ 6.94 µM) | 1 µg/mL (≈ 3.47 µM) | 4 µg/mL (≈ 13.9 µM) | 2 µg/mL (≈ 6.94 µM) | 8 µg/mL (≈ 27.7 µM) | 16 µg/mL (≈ 55.5 µM) | – | 0.25 µg/mL (≈ 0.867 µM) | 2 µg/mL (≈ 6.94 µM) | 2 µg/mL (≈ 6.94 µM) | 1 µg/mL (≈ 3.47 µM) | MIC (E. coli A-20341-1; [12]): 0.5 µg/mL (≈ 1.73 µM); MIC (Ps. aeruginosa A-21213; [13]): 8 µg/mL (≈ 27.7 µM); MIC (Proteus vulgaris A21559; [14]): 1 µg/mL (≈ 3.47 µM)
6 | CC1=C(C(=O)O)N2C(=O)[C@H]([C@H](O)Cc3ccccc3)[C@H]2S1 (relative stereo) [Example 95, (1'R,5R,6S and 1'S,5S,6R) 6-(1'-Hydroxy-2'-phenylethyl)-2-methylpenem-3-carboxylic acid (isomer B)] | 32 µg/mL (≈ 105 µM) | 32 µg/mL (≈ 105 µM) | 125 µg/mL (≈ 409 µM) | > 63 µg/mL | > 125 µg/mL | > 125 µg/mL | > 125 µg/mL | > 125 µg/mL | > 125 µg/mL | > 125 µg/mL | > 125 µg/mL | > 125 µg/mL | > 125 µg/mL | > 125 µg/mL | > 125 µg/mL | > 125 µg/mL | – | – | – | – | MIC [2, 5]: > 125 µg/mL; MIC (Ent. cloacae A-9656; Enterobacter cloacae A9656): > 125 µg/mL; MIC (Proteus rettgeri A21203; Proteus rettgeri A21203): > 125 µg/mL; MIC (Proteus vulgaris A21559; A21559, read-out: Minimum Inhibitory Concentration (M.I.C.)): > 125 µg/mL

— US4272437A, “Antibacterial agents, and 4-thio azetidinone intermediates” (priority 1979, dated 1981)
